System: 695427-040-R-J1-PDC complex spheroids, viability percent T/C
Test: Anticancer human tumor 695427-040-R-J1-PDC patient-derived colon adenocarcinoma cell line growth inhibition [GQUAD]
Conditions: for IC50: curve of first compound; for viability, T/C: stronger effect = lower value
Method in brief: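 Viability of tumor cells grown as complex spheroids with endothelial and stromal cells, exposed to drug combinations. Top concentration at or near clinical Cmax (else 10 microM), diluted in half-log increments.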

[1] = second compound 0.0316 µM, first compound 0.0316 µM
[2] = second compound 0.0316 µM, first compound 0.1 µM
[3] = second compound 0.0316 µM, first compound 0.316 µM
[4] = second compound 0.0316 µM, first compound 1 µM
[5] = second compound 0.0316 µM, first compound 3.16 µM
[6] = second compound 0.0316 µM, first compound 10 µM
[7] = second compound 0.1 µM, first compound 0.0316 µM
[8] = second compound 0.1 µM, first compound 0.1 µM
[9] = second compound 0.1 µM, first compound 0.316 µM
[10] = second compound 0.1 µM, first compound 1 µM
[11] = second compound 0.1 µM, first compound 3.16 µM
[12] = second compound 0.1 µM, first compound 10 µM
[13] = second compound 0.316 µM, first compound 0.0316 µM
[14] = second compound 0.316 µM, first compound 0.1 µM
[15] = second compound 0.316 µM, first compound 0.316 µM
[16] = second compound 0.316 µM, first compound 1 µM
[17] = second compound 0.316 µM, first compound 3.16 µM
[18] = second compound 0.316 µM, first compound 10 µM
[19] = second compound 1 µM, first compound 0.0316 µM
[20] = second compound 1 µM, first compound 0.1 µM
[21] = second compound 1 µM, first compound 0.316 µM
[22] = second compound 1 µM, first compound 1 µM
[23] = second compound 1 µM, first compound 3.16 µM
[24] = second compound 1 µM, first compound 10 µM
[25] = second compound 3.16 µM, first compound 0.0316 µM
[26] = second compound 3.16 µM, first compound 0.1 µM
[27] = second compound 3.16 µM, first compound 0.316 µM
[28] = second compound 3.16 µM, first compound 1 µM
[29] = second compound 3.16 µM, first compound 3.16 µM
[30] = second compound 3.16 µM, first compound 10 µM
[31] = second compound 10 µM, first compound 0.0316 µM
[32] = second compound 10 µM, first compound 0.1 µM
[33] = second compound 10 µM, first compound 0.316 µM
[34] = second compound 10 µM, first compound 1 µM
[35] = second compound 10 µM, first compound 3.16 µM
[36] = second compound 10 µM, first compound 10 µM
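Further: spheroids exposed to compounds for seven days before readout.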

With `CC(C)n1c(=O)n(C)c2cnc3cc(F)c(-c4ccc(OCCCN5CCCCC5)nc4)cc3c21` + Cc1[nH]c2ccc(F)cc2c1-c1nc2c3cccnc3c3ncccc3c2[nH]1 the IC50 (second compound 0.0316 µM) was over 10 µM, the IC50 (second compound 0.1 µM) was over 10 µM and the IC50 (second compound 0.316 µM) was over 10 µM. The IC50 (second compound 1 µM) was 9.84 µM, the IC50 (second compound 3.16 µM) was over 10 µM and the IC50 (second compound 10 µM) was 7.23 µM. For the same compound, the viability, T/C [1] was 116%, the viability, T/C [2] was 92.2% and the viability, T/C [3] was 116%. The viability, T/C [4] was 74.3%, the viability, T/C [5] was 93.5% and the viability, T/C [6] was 65.4%. It also gave a viability, T/C [7] of 101%, a viability, T/C [8] of 97.2% and a viability, T/C [9] of 128%. The viability, T/C [10] was 91.7%, the viability, T/C [11] was 94.3% and the viability, T/C [12] was 58.8%. It also gave a viability, T/C [13] of 102%, a viability, T/C [14] of 120% and a viability, T/C [15] of 96.4%. For the same compound, the viability, T/C [16] was 98.7%, the viability, T/C [17] was 99.2% and the viability, T/C [18] was 61.3%. For the same compound, the viability, T/C [19] was 84.2%, the viability, T/C [20] was 106% and the viability, T/C [21] was 111%. It also gave a viability, T/C [22] of 109%, a viability, T/C [23] of 106% and a viability, T/C [24] of 49.1%. It also gave a viability, T/C [25] of 86.8%, a viability, T/C [26] of 85% and a viability, T/C [27] of 94.8%. The viability, T/C [28] was 96.2%, the viability, T/C [29] was 92.2% and the viability, T/C [30] was 50.3%. For the same compound, the viability, T/C [31] was 61.7%, the viability, T/C [32] was 83% and the viability, T/C [33] was 95.5%. For the same compound, the viability, T/C [34] was 80.9%, the viability, T/C [35] was 87.1% and the viability, T/C [36] was 37.6%.

With `CC1COCCN1c1cc(-c2ccnn2C)c2ccnc(-c3ccn[nH]3)c2n1` (stereo not drawn) + Cc1[nH]c2ccc(F)cc2c1-c1nc2c3cccnc3c3ncccc3c2[nH]1 the IC50 (second compound 0.0316 µM) was 0.289 µM, the IC50 (second compound 0.1 µM) was 0.271 µM and the IC50 (second compound 0.316 µM) was 0.259 µM. The IC50 (second compound 1 µM) was 0.136 µM, the IC50 (second compound 3.16 µM) was 0.0564 µM and the IC50 (second compound 10 µM) was 0.0697 µM. The viability, T/C [1] was 86.8%, the viability, T/C [2] was 63.2% and the viability, T/C [3] was 47.6%. The viability, T/C [4] was 42%, the viability, T/C [5] was 29.8% and the viability, T/C [6] was 27.2%. For the same compound, the viability, T/C [7] was 91.9%, the viability, T/C [8] was 63.6% and the viability, T/C [9] was 53.3%. The viability, T/C [10] was 30.3%, the viability, T/C [11] was 34.9% and the viability, T/C [12] was 30.4%. For the same compound, the viability, T/C [13] was 78.5%, the viability, T/C [14] was 75.5% and the viability, T/C [15] was 44.7%. For the same compound, the viability, T/C [16] was 28.5%, the viability, T/C [17] was 28.5% and the viability, T/C [18] was 30.1%. For the same compound, the viability, T/C [19] was 68.5%, the viability, T/C [20] was 54.5% and the viability, T/C [21] was 37.5%. For the same compound, the viability, T/C [22] was 31.8%, the viability, T/C [23] was 31.4% and the viability, T/C [24] was 29.7%. It also gave a viability, T/C [25] of 57.8%, a viability, T/C [26] of 41.7% and a viability, T/C [27] of 34.2%. It also gave a viability, T/C [28] of 31%, a viability, T/C [29] of 25.5% and a viability, T/C [30] of 27.1%. It also gave a viability, T/C [31] of 57.9%, a viability, T/C [32] of 47.5% and a viability, T/C [33] of 35.4%. It also gave a viability, T/C [34] of 29.6%, a viability, T/C [35] of 27.3% and a viability, T/C [36] of 20.7%.

Work on `CC1COCCN1c1cc(C2(S(C)(=N)=O)CC2)nc(-c2ccnc3[nH]ccc23)n1` (stereo not drawn) + Cc1[nH]c2ccc(F)cc2c1-c1nc2c3cccnc3c3ncccc3c2[nH]1 yielded an IC50 (second compound 0.0316 µM) of over 10 µM, an IC50 (second compound 0.1 µM) of over 10 µM and an IC50 (second compound 0.316 µM) of over 10 µM. For the same compound, the IC50 (second compound 1 µM) was over 10 µM, the IC50 (second compound 3.16 µM) was over 10 µM and the IC50 (second compound 10 µM) was over 10 µM. The viability, T/C [1] was 99.3%, the viability, T/C [2] was 101% and the viability, T/C [3] was 87.6%. It also gave a viability, T/C [4] of 73.9%, a viability, T/C [5] of 76.9% and a viability, T/C [6] of 57.4%. For the same compound, the viability, T/C [7] was 103%, the viability, T/C [8] was 72.5% and the viability, T/C [9] was 102%. It also gave a viability, T/C [10] of 89.3%, a viability, T/C [11] of 73.2% and a viability, T/C [12] of 62.2%. The viability, T/C [13] was 87.9%, the viability, T/C [14] was 80.1% and the viability, T/C [15] was 84.8%. For the same compound, the viability, T/C [16] was 84.9%, the viability, T/C [17] was 74.6% and the viability, T/C [18] was 61.5%. It also gave a viability, T/C [19] of 70.5%, a viability, T/C [20] of 71.7% and a viability, T/C [21] of 70.3%. For the same compound, the viability, T/C [22] was 97%, the viability, T/C [23] was 83% and the viability, T/C [24] was 65.8%. The viability, T/C [25] was 61.9%, the viability, T/C [26] was 84% and the viability, T/C [27] was 75.9%. The viability, T/C [28] was 81.8%, the viability, T/C [29] was 71.9% and the viability, T/C [30] was 61.2%. For the same compound, the viability, T/C [31] was 66%, the viability, T/C [32] was 67.9% and the viability, T/C [33] was 80.8%. For the same compound, the viability, T/C [34] was 82%, the viability, T/C [35] was 67.6% and the viability, T/C [36] was 54.3%.

`O=C(c1cc(Cc2n[nH]c(=O)c3ccccc23)ccc1F)N1CCN(C(=O)C2CC2)CC1` + Cc1[nH]c2ccc(F)cc2c1-c1nc2c3cccnc3c3ncccc3c2[nH]1 gave an IC50 (second compound 0.0316 µM) of over 10 µM, an IC50 (second compound 0.1 µM) of over 10 µM and an IC50 (second compound 0.316 µM) of over 10 µM. The IC50 (second compound 1 µM) was over 10 µM, the IC50 (second compound 3.16 µM) was under 0.0316 µM and the IC50 (second compound 10 µM) was over 10 µM. For the same compound, the viability, T/C [1] was 97.7%, the viability, T/C [2] was 105% and the viability, T/C [3] was 101%. For the same compound, the viability, T/C [4] was 82.3%, the viability, T/C [5] was 94.6% and the viability, T/C [6] was 95.2%. It also gave a viability, T/C [7] of 114%, a viability, T/C [8] of 93.4% and a viability, T/C [9] of 97.7%. It also gave a viability, T/C [10] of 78.3%, a viability, T/C [11] of 93.2% and a viability, T/C [12] of 84.9%. The viability, T/C [13] was 105%, the viability, T/C [14] was 89.1% and the viability, T/C [15] was 91.5%. For the same compound, the viability, T/C [16] was 91.1%, the viability, T/C [17] was 96% and the viability, T/C [18] was 102%. The viability, T/C [19] was 84.3%, the viability, T/C [20] was 87.4% and the viability, T/C [21] was 73.1%. For the same compound, the viability, T/C [22] was 78.5%, the viability, T/C [23] was 99.5% and the viability, T/C [24] was 79.2%. The viability, T/C [25] was 47.6%, the viability, T/C [26] was 87.2% and the viability, T/C [27] was 74.8%. For the same compound, the viability, T/C [28] was 69.1%, the viability, T/C [29] was 91% and the viability, T/C [30] was 87.4%. It also gave a viability, T/C [31] of 62.6%, a viability, T/C [32] of 69.1% and a viability, T/C [33] of 92.1%. It also gave a viability, T/C [34] of 82.5%, a viability, T/C [35] of 75.9% and a viability, T/C [36] of 89.8%.
